The values that follow come from ChEMBL document CHEMBL1153037, “Synthesis and structure-activity relationship studies of cytotoxic anhydrovinblastine amide derivatives” (J Nat Prod, 2009).

For assay [1], the system named is A549. The experiment in a line: Cytotoxicity against human A549 cells by sulforhodamine B assay. The assay is classed as functional, cell-based.
Assay [2] concerns HeLa. The experiment in a line: Cytotoxicity against human HeLa cells by sulforhodamine B assay. The assay is classed as functional, cell-based.
Assay [3] relates to CCRF S-180. The experiment in a line: Antitumor activity against mouse S180 cells xenografted in Kunming mouse at 10 mg/kg, iv administered on day 1 and 4. The assay is classed as functional. Conditions: for inhibition in vivo at 10 mg/kg: Mus musculus.
Assay [4] relates to CCRF S-180. The assay is described as follows: Antitumor activity against mouse S180 cells xenografted in Kunming mouse at 20 mg/kg, iv administered as single dose on day 1. The assay is classed as functional. Conditions: CCRF S-180, 24 h.
Assay [5] has as its system CCRF S-180. The experiment in a line: Toxicity against mouse S180 cells xenografted in Kunming mouse at 10 mg/kg, iv administered on day 1 and 4. The assay is classed as functional, organism-based. Also noted: dose 10 mg/kg.

Where a name gives a salt, the structure may show the parent alone.

For the compound `CCC1=C[C@@H]2CN(CCc3c([nH]c4ccccc34)[C@@](C(=O)OC)(c3cc4c(cc3OC)N(C)[C@H]3[C@@](O)(CNC(=O)c5ccncc5)[C@H](OC(C)=O)[C@]5(CC)C=CCN6CC[C@]43[C@@H]65)C2)C1`, the IC50 in assay [1] (Homo sapiens, A549) was 27 nM; in assay [2], 24 nM.

Turning to `CCC1=C[C@@H]2CN(CCc3c([nH]c4ccccc34)[C@@](C(=O)OC)(c3cc4c(cc3OC)N(C)[C@H]3[C@@](O)(CNC(=O)c5ccc(Cl)cc5)[C@H](OC(C)=O)[C@]5(CC)C=CCN6CC[C@]43[C@@H]65)C2)C1`, the IC50 in assay [1] (Homo sapiens, A549) was found to be 25 nM; in assay [2], 47 nM.

As to `CCC1=C[C@@H]2CN(CCc3c([nH]c4ccccc34)[C@@](C(=O)OC)(c3cc4c(cc3OC)N(C)[C@H]3[C@@](O)(CNC(=O)c5ccccc5Cl)[C@H](OC(C)=O)[C@]5(CC)C=CCN6CC[C@]43[C@@H]65)C2)C1`, the IC50 was found to be 24 nM in assay [1] (Homo sapiens, A549) and 89 nM in assay [2].

For `CCC1=C[C@@H]2CN(CCc3c([nH]c4ccccc34)[C@@](C(=O)OC)(c3cc4c(cc3OC)N(C)[C@H]3[C@@](O)(CNC(=O)c5cccc(Cl)c5)[C@H](OC(C)=O)[C@]5(CC)C=CCN6CC[C@]43[C@@H]65)C2)C1`, the IC50 in assay [1] (Homo sapiens, A549) is 26 nM; in assay [2], 67 nM.

Take `CCC1=C[C@@H]2CN(CCc3c([nH]c4ccccc34)[C@@](C(=O)OC)(c3cc4c(cc3OC)N(C)[C@H]3[C@@](O)(CNC(=O)c5ccc(OC)cc5)[C@H](OC(C)=O)[C@]5(CC)C=CCN6CC[C@]43[C@@H]65)C2)C1`: the IC50 in assay [1] (Homo sapiens, A549) was 30 nM; in assay [2], 139 nM.

Take `CCC1=C[C@@H]2CN(CCc3c([nH]c4ccccc34)[C@@](C(=O)OC)(c3cc4c(cc3OC)N(C)[C@H]3[C@@](O)(CNC(=O)C5CCC5)[C@H](OC(C)=O)[C@]5(CC)C=CCN6CC[C@]43[C@@H]65)C2)C1`: the IC50 came out at 34 nM in assay [1] (Homo sapiens, A549) and 68 nM in assay [2].

For `CCC1=C[C@@H]2CN(CCc3c([nH]c4ccccc34)[C@@](C(=O)OC)(c3cc4c(cc3OC)N(C)[C@H]3[C@@](O)(CNC(C)=O)[C@H](OC(C)=O)[C@]5(CC)C=CCN6CC[C@]43[C@@H]65)C2)C1`, the IC50 in assay [1] (Homo sapiens, A549) was 22 nM; in assay [2] it was 444 nM.

Turning to `CCC(=O)NC[C@@]1(O)[C@H](OC(C)=O)[C@]2(CC)C=CCN3CC[C@@]4(c5cc([C@@]6(C(=O)OC)C[C@@H]7C=C(CC)CN(CCc8c6[nH]c6ccccc86)C7)c(OC)cc5N(C)[C@@H]14)[C@@H]32`, the IC50 in assay [1] (Homo sapiens, A549) is 43 nM; in assay [2] it was 57 nM. In assay [3] (CCRF S-180, 24 h), this compound came in with an inhibition in vivo at 10 mg/kg of 84.4%. Besides, in assay [4], at 20 mg/kg the inhibition in vivo was 90%. The Activity result in assay [5] was “Not toxic”.

Take `CCC1=C[C@@H]2CN(CCc3c([nH]c4ccccc34)[C@@](C(=O)OC)(c3cc4c(cc3OC)N(C)[C@H]3[C@@](O)(CNC(=O)C(C)C)[C@H](OC(C)=O)[C@]5(CC)C=CCN6CC[C@]43[C@@H]65)C2)C1`: the IC50 in assay [1] (Homo sapiens, A549) was 101 nM; in assay [2], 132 nM.

Turning to `CCC1=C[C@@H]2CN(CCc3c([nH]c4ccccc34)[C@@](C(=O)OC)(c3cc4c(cc3OC)N(C)[C@H]3[C@@](O)(CNC(=O)c5ccccc5OC)[C@H](OC(C)=O)[C@]5(CC)C=CCN6CC[C@]43[C@@H]65)C2)C1`, the IC50 in assay [1] (Homo sapiens, A549) was 10 nM; in assay [2], 21 nM.

`CCC1=C[C@@H]2CN(CCc3c([nH]c4ccccc34)[C@@](C(=O)OC)(c3cc4c(cc3OC)N(C)[C@H]3[C@@](O)(CNC(=O)c5ccc([N+](=O)[O-])cc5)[C@H](OC(C)=O)[C@]5(CC)C=CCN6CC[C@]43[C@@H]65)C2)C1`: the IC50 stood at 33 nM in assay [1] (Homo sapiens, A549) and 23 nM in assay [2].

As to `CCC1=C[C@@H]2CN(CCc3c([nH]c4ccccc34)[C@@](C(=O)OC)(c3cc4c(cc3OC)N(C)[C@H]3[C@@](O)(CNC(=O)C5CC5)[C@H](OC(C)=O)[C@]5(CC)C=CCN6CC[C@]43[C@@H]65)C2)C1`, the IC50 in assay [1] (Homo sapiens, A549) was found to be 26 nM; in assay [2] it was 35 nM. The inhibition in vivo at 10 mg/kg in assay [3] (CCRF S-180, 24 h) was determined as 81.3%. For the same compound, the inhibition in vivo at 20 mg/kg in assay [4] came out at 88.8%.

As for `CCC1=C[C@@H]2CN(CCc3c([nH]c4ccccc34)[C@@](C(=O)OC)(c3cc4c(cc3OC)N(C)[C@H]3[C@@](O)(CNC(=O)C(C)(C)C)[C@H](OC(C)=O)[C@]5(CC)C=CCN6CC[C@]43[C@@H]65)C2)C1`, the IC50 is 95 nM in assay [1] (Homo sapiens, A549) and 61 nM in assay [2].

Consider `CCC1=C[C@@H]2CN(C1)Cc1c([nH]c3ccccc13)[C@@](C(=O)OC)(c1cc3c(cc1OC)N(C)[C@H]1[C@@](O)(C(=O)OC)[C@H](OC(C)=O)[C@]4(CC)C=CCN5CC[C@]31[C@@H]54)C2` [VINORELBINE TARTRATE], for which, in assay [3] (CCRF S-180, iv, 24 h), at 10 mg/kg the inhibition in vivo was 62.5%.

On to `CCC1=C[C@@H]2CN(CCc3c([nH]c4ccccc34)[C@@](C(=O)OC)(c3cc4c(cc3OC)N(C)[C@H]3[C@@](O)(CNC(=O)CC(C)(C)C)[C@H](OC(C)=O)[C@]5(CC)C=CCN6CC[C@]43[C@@H]65)C2)C1`, for which the IC50 in assay [1] (Homo sapiens, A549) worked out at 115 nM; in assay [2], 93 nM.

Turning to `CCCC(=O)NC[C@@]1(O)[C@H](OC(C)=O)[C@]2(CC)C=CCN3CC[C@@]4(c5cc([C@@]6(C(=O)OC)C[C@@H]7C=C(CC)CN(CCc8c6[nH]c6ccccc86)C7)c(OC)cc5N(C)[C@@H]14)[C@@H]32`, the IC50 in assay [1] (Homo sapiens, A549) is 96 nM; in assay [2], 97 nM.

Turning to `CCC1=C[C@@H]2CN(CCc3c([nH]c4ccccc34)[C@@](C(=O)OC)(c3cc4c(cc3OC)N(C)[C@H]3[C@@](O)(CNC(=O)c5ccccc5)[C@H](OC(C)=O)[C@]5(CC)C=CCN6CC[C@]43[C@@H]65)C2)C1`, the IC50 was 27 nM in assay [1] (Homo sapiens, A549) and 26 nM in assay [2].

Consider `CCC1=C[C@@H]2CN(CCc3c([nH]c4ccccc34)[C@@](C(=O)OC)(c3cc4c(cc3OC)N(C)[C@H]3[C@@](O)(CNC(=O)c5ccc6c(c5)OCO6)[C@H](OC(C)=O)[C@]5(CC)C=CCN6CC[C@]43[C@@H]65)C2)C1`, for which the IC50 in assay [1] (Homo sapiens, A549) came to 8 nM; in assay [2], 33 nM. Further, testing at 10 mg/kg in assay [3] (CCRF S-180, 24 h) gave an inhibition in vivo of 58.1%. In assay [4], this compound gave an inhibition in vivo at 20 mg/kg of 66.3%. For the same compound, the Activity result in assay [5] was “Not toxic”.

For the compound `CCC1=C[C@@H]2CN(C1)Cc1c([nH]c3ccccc13)[C@@](C(=O)OC)(c1cc3c(cc1OC)N(C)[C@H]1[C@@](O)(C(=O)OC)[C@H](OC(C)=O)[C@]4(CC)C=CCN5CC[C@]31[C@@H]54)C2`, the Activity entry in assay [5] is “Not toxic”.

On to `CCC1=C[C@@H]2CN(C1)Cc1c([nH]c3ccccc13)[C@@](C(=O)OC)(c1cc3c(cc1OC)N(C)[C@H]1[C@@](O)(C(=O)OC)[C@H](OC(C)=O)[C@]4(CC)C=CCN5CC[C@]31[C@@H]54)C2` [VINORELBINE], for which the IC50 in assay [1] (a549) is 30 nM. In addition, in assay [3], the “inhibition (INH)” value is 69.4%.

For `CCC1=C[C@@H]2CN(CCc3c([nH]c4ccccc34)[C@@](C(=O)OC)(c3cc4c(cc3OC)N(C)[C@H]3[C@@](O)(CNC(=O)c5ccc(F)cc5)[C@H](OC(C)=O)[C@]5(CC)C=CCN6CC[C@]43[C@@H]65)C2)C1`, the IC50 in assay [1] (Homo sapiens, A549) came out at 20 nM; in assay [2], 25 nM.

For `CCC1=C[C@@H]2CN(CCc3c([nH]c4ccccc34)[C@@](C(=O)OC)(c3cc4c(cc3OC)N(C)[C@H]3[C@@](O)(CNC(=O)Cc5ccccc5)[C@H](OC(C)=O)[C@]5(CC)C=CCN6CC[C@]43[C@@H]65)C2)C1`, the IC50 was 39 nM in assay [1] (Homo sapiens, A549) and 78 nM in assay [2].

For `CCC1=C[C@@H]2CN(CCc3c([nH]c4ccccc34)[C@@](C(=O)OC)(c3cc4c(cc3OC)N(C)[C@H]3[C@@](O)(CNC(=O)CC(C)C)[C@H](OC(C)=O)[C@]5(CC)C=CCN6CC[C@]43[C@@H]65)C2)C1`, the IC50 in assay [1] (Homo sapiens, A549) is 152 nM; in assay [2], 85 nM.
